Test results: patent publication US20070117851A1, “Liquid pharmaceutical compositions of nimodipine” (TRANSFORM PHARMACEUTICALS, INC., priority 2005, published 2007)
Converted amounts (≈) assume the structure as drawn.

Legend:
[1] = Chemical stability of nimodipine in the Table 2 composition via HPLC; type: physicochemical
Method: The chemical stability of nimodipine was measured at 40 and 60 degrees C. via HPLC in a composition described in Table 2.
FIGS. 1 and 2 show the chemical stability of nimodipine in the composition described in Table 2 at 40 and 60 degrees C., respectively. These Figures show data acquired with compositions having a pH of 5, 6, and 7, over a period of four weeks. […] Subsequent data has also been acquired over a period of 8 weeks.

[2] = Nimodipine equilibrium solubility in alcohol/solvent/water mixtures; type: physicochemical; settings: 10% ethanol
Method: The effect of several alcohol and solvent concentrations on nimodipine solubility in water was studied. Nimodipine equilibrium solubility was tested at room temperature with the following solutions: • 1. Various % (v/v) of ethanol in 10 mM pH 6.8 citrate buffer • 2. Various % (w/w) of Cremophor® EL in 10 mM pH 6.8 citrate buffer • 3. Various % (v/v) of ethanol with 30% (w/w) Cremophor® EL in 10 mM pH 6.8 citrate buffer • 4. Various % (w/w) of propylene glycol (PG) in the solution of 30% Cremophor™ EL and 10% ethanol in citrate buffer at pH 6.8 • 5. Various % (w/w) of propylene glycol (PG) in the solution of 20% Cremophor® EL and 10% ethanol in citrate buffer at pH 6.8 • 6. Various % (w/w) of PEG 400 in the solution of 20% Cremophor® EL and 10% ethanol in citrate buffer at pH 6.8 • 7. Various % (w/w) of PEG400 in the solution of 30% Cremophor® EL and 10% ethanol in citrate buffer at pH 6.8 • 8. Various % (w/w) of mixture of PG/PEG400 at 1:1 (w/w) in the solution of 30% Cremophor® EL and 10% ethanol in citrate buffer at pH6.8 The above solutions were prepared by weight except solution 1 which the percent ethanol was mixed with citrate buffer by volume. […] Concentration of each sample was determined by HPLC based on a standard curve and the dilution factor of each samples solution. […]

- nimodipine stability ([1]; Table 2 composition (3.0 mg/mL), 40 degrees C, pH 5, 6 and 7, four weeks, HPLC): greater than 99%
- nimodipine stability ([1]; Table 2 composition (3.0 mg/mL), 60 degrees C, pH 5, 6 and 7, four weeks, HPLC): greater than 99%
- nimodipine stability ([1]; Table 2 composition, 60 degrees C, pH=7, 8 weeks): greater than 99%
- nimodipine solubility compared with the composition comprising 30% ethanol and 30% Cremophor EL ([2]; 30% PEG 400, FIG. 7): comparable
- solubility at 24 h ([2]; aqueous with cosolvent or surfactant or cyclodextrin, thermodynamic from solid, 30% Cremophor EL, 30% PEG 400 in citrate buffer pH 6.8, room temperature, 24 hours): ~14 mg/mL (≈ 33.5 mM)
Structure (SMILES): COCCOC(=O)C1=C(C)NC(C)=C(C(=O)OC(C)C)C1c1cccc([N+](=O)[O-])c1 (centres unmarked) [nimodipine, 1,4-dihydro-2,6-dimethyl-4-(3-nitrophenyl)-3,5-pyridinedicarboxylic acid 2-methoxyethyl 1-methylethyl ester]
